# Measurements as given in the supplement of paper PMC10307832.
# Experiments:
# Test in all cases: relative viability (nuclei count vs DMSO), 5 days (fraction); higher = more cells survive
# [1] = compound: CN(C)CC1=CC(=CC=C1)N=C(C2=CC=CC=C2)C3=C(NC4=C3C=CC(=C4)C(=O)N(C)C)O + COc1cc2c(Oc3ccc(NC(=O)C4(C(=O)Nc5ccc(F)cc5)CC4)cc3F)ccnc2cc1OCCCN1CCOCC1 [Foretinib] (partner 0.25 µM)
# How it was run: (§1)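 For relative viability, nuclei counts in treated wells were divided by those in vehicle wells. Lung cancer cell lines had been pin-tool dosed in 1536-well plates the day after seeding and cultured for 5 days, then fixed and stained in one step (final 0.05% Triton X-100, 1% formaldehyde, 1 ug/ml Hoechst) and imaged at 4×. Doses were one drug alone or a fixed anchor-drug dose plus five library-drug doses (not always all listed) in √10 steps, and values are duplicate-plate medians.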
# [2] = compound: CN(C)CC1=CC(=CC=C1)N=C(C2=CC=CC=C2)C3=C(NC4=C3C=CC(=C4)C(=O)N(C)C)O + O=C(c1cc(Cc2n[nH]c(=O)c3ccccc23)ccc1F)N1CCN(C(=O)C2CC2)CC1 [Olaparib] (partner 8 µM)
# How it was run: as §1
# [3] = compound: CN(C)CC1=CC(=CC=C1)N=C(C2=CC=CC=C2)C3=C(NC4=C3C=CC(=C4)C(=O)N(C)C)O + Nc1nc2[nH]cc(CCc3ccc(C(=O)N[C@@H](CCC(=O)O)C(=O)O)cc3)c2c(=O)[nH]1 [Pemetrexed] (partner 0.2 µM)
# How it was run: as §1
# [4] = compound: CN(C)CC1=CC(=CC=C1)N=C(C2=CC=CC=C2)C3=C(NC4=C3C=CC(=C4)C(=O)N(C)C)O + Cc1nc(NC(=O)N2CCC[C@H]2C(N)=O)sc1-c1ccnc(C(C)(C)C(F)(F)F)c1 [Alpelisib] (partner 2 µM)
# How it was run: as §1
Cell Line,relative viability ([1]; first compound 0.08 µM),relative viability ([1]; first compound 0.253 µM),relative viability ([1]; first compound 0.8 µM),relative viability ([1]; first compound 2.53 µM),relative viability ([1]; first compound 8 µM),relative viability ([2]; first compound 0.08 µM),relative viability ([2]; first compound 0.253 µM),relative viability ([2]; first compound 0.8 µM),relative viability ([2]; first compound 2.53 µM),relative viability ([2]; first compound 8 µM),relative viability ([3]; first compound 0.08 µM),relative viability ([3]; first compound 0.253 µM),relative viability ([3]; first compound 0.8 µM),relative viability ([3]; first compound 2.53 µM),relative viability ([3]; first compound 8 µM),relative viability ([4]; first compound 0.08 µM),relative viability ([4]; first compound 0.253 µM),relative viability ([4]; first compound 0.8 µM),relative viability ([4]; first compound 2.53 µM),relative viability ([4]; first compound 8 µM)
HARA,0.398,1.02,1.06,0.867,0.79,0.622,1.03,0.762,0.758,0.967,0.214,0.234,0.203,0.291,0.228,0.79,0.824,0.715,0.788,0.713
H3255,0.857,0.857,0.631,1.04,0.848,0.577,0.57,0.598,0.574,0.608,0.592,0.52,0.543,0.592,0.592,0.781,0.754,0.635,0.635,0.84
SK-LU-1,0.891,0.881,0.857,0.651,0.581,0.483,0.47,0.516,0.431,0.385,1.01,0.941,1.03,0.961,0.781,0.883,1.01,0.992,0.87,0.597
NCI-H1793,0.745,0.66,–,0.734,0.621,0.924,0.774,0.678,0.95,0.758,0.901,0.872,0.553,0.791,0.823,0.633,0.886,0.58,0.812,0.814
EMC-BAC-2,1.11,0.99,0.963,0.944,0.958,0.507,0.526,0.543,0.449,0.507,0.437,0.445,0.582,0.435,0.508,0.763,0.743,0.71,0.738,0.67
NCI-H2405,1.04,1.08,1.01,0.992,1.04,0.888,0.896,0.935,0.753,0.757,1.2,1.07,0.936,1.08,0.828,0.87,0.713,0.889,0.721,0.654
EPLC-272H,0.654,0.776,0.534,0.681,0.51,0.696,0.888,0.689,0.664,0.583,0.355,0.345,0.284,0.314,0.398,0.935,0.872,0.825,1.06,0.856
LXF-289,0.966,0.9,1.03,0.93,0.929,1.11,1.03,1.03,0.993,1.03,0.937,0.836,0.904,0.885,0.827,1.04,1,0.966,0.971,0.941
NCI-H1299,1.09,1.06,1.14,1.04,1.08,0.982,0.999,0.962,0.909,0.901,–,–,–,–,–,0.953,1.04,1.05,1.04,1.02
NCI-H1395,0.97,1.01,1.04,0.854,0.92,0.499,0.445,0.416,0.492,0.448,0.915,0.931,0.992,0.763,0.834,1.04,0.948,1.1,0.87,0.964
NCI-H596,0.593,0.971,0.845,0.883,0.807,0.692,0.718,0.695,0.69,0.861,0.493,0.554,0.484,0.502,0.521,0.504,0.491,0.459,0.536,0.447
201T,1.12,1.01,1.07,0.957,0.774,0.829,0.801,0.839,0.817,0.721,0.355,0.382,0.347,0.331,0.315,1,0.968,0.977,0.962,0.955
NCI-H1944,0.888,0.923,0.877,0.86,0.785,0.424,0.389,0.373,0.42,0.377,0.607,0.571,0.615,0.512,0.537,0.828,0.799,0.748,0.826,0.783
NCI-H322M,0.887,1.02,0.831,0.831,0.666,0.68,0.753,0.679,0.645,0.661,0.556,0.6,0.612,0.565,0.527,0.768,0.714,0.695,0.797,0.708
NCI-H1755,0.941,0.903,0.989,0.874,0.918,0.835,0.898,0.923,0.825,0.794,0.351,0.404,0.371,0.364,0.423,0.903,0.91,0.916,0.867,0.853
NCI-H1915,1.03,1.06,1.13,1.12,1.05,0.257,0.271,0.249,0.249,0.251,0.51,0.446,0.629,0.513,0.417,1.12,1.05,1.11,1.05,1.02

Cell Line,relative viability ([1]; first compound 0.08 µM),relative viability ([1]; first compound 0.253 µM),relative viability ([1]; first compound 0.8 µM),relative viability ([1]; first compound 2.53 µM),relative viability ([1]; first compound 8 µM),relative viability ([2]; first compound 0.08 µM),relative viability ([2]; first compound 0.253 µM),relative viability ([2]; first compound 0.8 µM),relative viability ([2]; first compound 2.53 µM),relative viability ([2]; first compound 8 µM),relative viability ([3]; first compound 0.08 µM),relative viability ([3]; first compound 0.253 µM),relative viability ([3]; first compound 0.8 µM),relative viability ([3]; first compound 2.53 µM),relative viability ([3]; first compound 8 µM),relative viability ([4]; first compound 0.08 µM),relative viability ([4]; first compound 0.253 µM),relative viability ([4]; first compound 0.8 µM),relative viability ([4]; first compound 2.53 µM),relative viability ([4]; first compound 8 µM)
NCI-H2228,0.946,0.904,0.77,0.88,0.708,0.781,0.542,0.623,0.689,0.557,0.312,0.36,0.339,0.33,0.353,0.452,0.753,0.859,0.687,0.588
NCI-H2347,0.969,1.02,0.809,1.11,1,0.536,0.584,0.593,0.572,0.575,0.405,0.461,0.418,0.42,0.43,1.02,0.983,1.07,1.08,1.04
NCI-H727,0.896,0.877,0.804,0.942,0.664,–,0.697,0.672,0.672,0.86,–,–,–,–,–,0.631,0.564,0.621,0.603,0.608
ChaGo-K-1,0.945,0.911,1.04,0.902,0.771,0.386,0.458,0.41,0.355,0.415,0.251,0.267,0.259,0.258,0.265,–,–,–,–,–
NCI-H1650,1.17,1.12,1.08,1.05,0.977,0.821,0.787,0.753,0.937,0.75,0.34,0.353,0.344,0.373,0.39,–,–,–,–,–
NCI-H1648,–,–,–,–,–,0.867,0.72,–,0.709,1.28,0.717,0.758,–,0.739,0.668,–,–,–,–,–
Calu-6,0.923,0.882,0.948,0.906,0.929,0.558,0.549,0.571,0.565,0.63,–,–,–,–,–,1.05,1.11,1.06,0.971,0.93
SW 900,0.867,0.842,0.7,0.887,0.861,0.813,0.962,1.02,0.8,0.967,0.439,0.495,0.497,0.535,0.445,–,–,–,–,–
NCI-H1563,0.941,0.967,0.917,0.857,0.948,–,–,–,–,–,0.829,0.665,0.782,0.741,0.698,1.03,1.03,0.956,0.875,0.847
HCC-44,–,–,–,–,–,0.975,0.995,0.967,0.904,1.04,0.691,0.583,0.693,0.598,0.716,0.787,0.736,0.768,0.766,0.77
IA-LM,1.16,1.19,1.3,1.18,1.32,0.941,0.793,1.02,0.957,0.962,–,–,–,–,–,–,0.806,0.942,0.88,1.03
ABC-1,1.31,1.12,0.851,1,1.28,0.91,0.907,0.952,0.635,0.756,–,–,–,–,–,1.14,1.03,0.957,0.896,1.09
NCI-H522,–,–,–,–,–,0.573,0.663,0.545,0.713,0.622,1.03,1.04,0.763,1.07,0.817,–,–,–,–,–
NCI-H1703,0.334,0.489,0.333,0.261,0.316,0.375,0.559,0.39,0.199,0.214,–,–,–,–,–,0.354,0.282,0.41,0.22,0.184
NCI-H1792,–,–,–,–,–,0.536,0.452,0.479,0.387,0.422,0.872,0.826,0.702,0.673,0.838,0.689,0.588,0.669,0.644,0.555
